Results taken from PubChem BioAssay AID2060347 (Molecular Pharmacology Branch, DTP, NCI, 2025).

System: 817829-284-R-J1-PDC spheroids with HUVEC/MSC, viability
Experiment: Anticancer human tumor 817829-284-R-J1-PDC patient-derived colon adenocarcinoma cell line growth inhibition [TAK]
Conditions: for IC50: curve of first compound; for viability, T/C: stronger effect = lower value
How it was run: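 Drug combinations, each paired with TAK-243 or ipatasertib, were tested on multi-cell spheroids of 60% malignant cells, 25% HUVEC and 15% hMSC. Top concentrations were at or near the clinical Cmax (10 microM if undetermined), decreasing by half-log; viability is given as % test/control.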

[1] = second compound 0.3 µM, first compound 0.0316 µM
[2] = second compound 0.3 µM, first compound 0.1 µM
[3] = second compound 0.3 µM, first compound 0.316 µM
[4] = second compound 0.3 µM, first compound 1 µM
[5] = second compound 0.949 µM, first compound 0.0316 µM
[6] = second compound 0.949 µM, first compound 0.1 µM
[7] = second compound 0.949 µM, first compound 0.316 µM
[8] = second compound 0.949 µM, first compound 1 µM
[9] = second compound 3 µM, first compound 0.0316 µM
[10] = second compound 3 µM, first compound 0.1 µM
[11] = second compound 3 µM, first compound 0.316 µM
[12] = second compound 3 µM, first compound 1 µM
[13] = second compound 9.49 µM, first compound 0.0316 µM
[14] = second compound 9.49 µM, first compound 0.1 µM
[15] = second compound 9.49 µM, first compound 0.316 µM
[16] = second compound 9.49 µM, first compound 1 µM
[17] = second compound 30 µM, first compound 0.0316 µM
[18] = second compound 30 µM, first compound 0.1 µM
[19] = second compound 30 µM, first compound 0.316 µM
[20] = second compound 30 µM, first compound 1 µM

| SMILES | IC50 (second compound 0.3 µM) | IC50 (second compound 0.949 µM) | IC50 (second compound 3 µM) | IC50 (second compound 9.49 µM) | IC50 (second compound 30 µM) | viability, T/C [1] | viability, T/C [2] | viability, T/C [3] | viability, T/C [4] | viability, T/C [5] | viability, T/C [6] | viability, T/C [7] | viability, T/C [8] | viability, T/C [9] | viability, T/C [10] | viability, T/C [11] | viability, T/C [12] | viability, T/C [13] | viability, T/C [14] | viability, T/C [15] | further results |
| --- | --- | --- | --- | --- | --- | --- | --- | --- | --- | --- | --- | --- | --- | --- | --- | --- | --- | --- | --- | --- | --- |
| COc1c(OCCCN2CCOCC2)ccc2c3n(c(=NC(=O)c4cnc(N)nc4)nc12)CCN3 + CC(C)NCC(C(=O)N1CCN(c2ncnc3c2C(C)CC3O)CC1)c1ccc(Cl)cc1 | 8.27 nM | < 3.16 nM | < 3.16 nM | < 3.16 nM | < 3.16 nM | 23.3% | 8.89% | 2.93% | 2.83% | 8.85% | 4.57% | 1.95% | 1.97% | 3.03% | 2.24% | 1.67% | 1.29% | 2.03% | 2.04% | 1.13% | viability, T/C (second compound 0.3 µM, first compound 0.00316 µM): 64.6%; viability, T/C (second compound 0.3 µM, first compound 0.01 µM): 47%; viability, T/C (second compound 0.949 µM, first compound 0.00316 µM): 20.2%; viability, T/C (second compound 0.949 µM, first compound 0.01 µM): 10.4%; viability, T/C (second compound 3 µM, first compound 0.00316 µM): 7.34%; viability, T/C (second compound 3 µM, first compound 0.01 µM): 4.51%; viability, T/C (second compound 9.49 µM, first compound 0.00316 µM): 5.41%; viability, T/C (second compound 9.49 µM, first compound 0.01 µM): 3.12%; viability, T/C [16]: 1.28%; viability, T/C (second compound 30 µM, first compound 0.00316 µM): 3.31%; viability, T/C (second compound 30 µM, first compound 0.01 µM): 1.8%; viability, T/C [17]: 1.37%; viability, T/C [18]: 1.05%; viability, T/C [19]: 0.7%; viability, T/C [20]: 0.47% |
| Cc1nc(NC(=O)N2CCCC2C(N)=O)sc1-c1ccnc(C(C)(C)C(F)(F)F)c1 (stereo not given) + CC(C)NCC(C(=O)N1CCN(c2ncnc3c2C(C)CC3O)CC1)c1ccc(Cl)cc1 | 1190 nM | 76.2 nM | < 31.6 nM | < 31.6 nM | < 31.6 nM | 87.9% | 80.6% | 74.8% | 51.9% | 61.8% | 48.5% | 28.4% | 26.7% | 18.1% | 17% | 13.2% | 6.56% | 9.9% | 9.69% | 8.57% | viability, T/C (second compound 0.3 µM, first compound 3.16 µM): 37%; viability, T/C (second compound 0.3 µM, first compound 10 µM): 33.1%; viability, T/C (second compound 0.949 µM, first compound 3.16 µM): 14.4%; viability, T/C (second compound 0.949 µM, first compound 10 µM): 8.03%; viability, T/C (second compound 3 µM, first compound 3.16 µM): 6.29%; viability, T/C (second compound 3 µM, first compound 10 µM): 5.54%; viability, T/C [16]: 5.76%; viability, T/C (second compound 9.49 µM, first compound 3.16 µM): 3.41%; viability, T/C (second compound 9.49 µM, first compound 10 µM): 2.85%; viability, T/C [17]: 6.53%; viability, T/C [18]: 6.06%; viability, T/C [19]: 4.67%; viability, T/C [20]: 3.84%; viability, T/C (second compound 30 µM, first compound 3.16 µM): 2.64%; viability, T/C (second compound 30 µM, first compound 10 µM): 1.58% |
